Here are results for two molecules from patent US7247444B2, “Use of interleukin-19 to treat cervical cancer” (ZymoGenetics, Inc., priority 2002, dated 2007).

The test system of the assay is HeLa299. In words: HeLa299 cytoxicity assay (MTT readout). Particulars: HeLa299 cells, 72 hrs, complete growth media. It counts as cell-based. The procedure:
We tested IL-19 in a HeLa299 cytoxicity assay to measure the ability of IL-19 to prevent cells from growing during normal growth conditions. We used MTT reagent (Promega, Madison, USA) as our detection and readout for this cell inhibition assay. Procedure of a cytoxicity assay: • Day 1—Plate cells out in complete growth media (with serum) at 5000 cells/well in a 96 well format and let them incubate overnight at 37 degrees and 5% CO2. • Day 2—Dump off media and add a dose response of appropriate ligands in complete growth media (IL-19 at 10, 100, and 1000 ng/ml.), along with a positive control retinoic acid (100 uM) in complete growth media, while leaving some wells in complete growth media as controls of how the cells normally grow under normal conditions. Put the cells in incubator and let the assay go for 72 hrs. • Day 5—Add 15 ul/well of MTT reagent, let cells inc. for 4 hrs., then add 100 ul of stop solution, let cells inc. for an additional 1 hr., then read the plate on a multilabel counter (Victor2, PerkinElmer Life Sciences Inc., Boston). The MTT protocol will give you two readings, one at a 650 wavelength (background) and one at a 572 wavelength. Subtract the 650 reading from the 572 reading to get your actual output. These numbers are averaged and converted to a % inhibition value.

Take `CC1=C(/C=C/C(C)=C/C=C/C(C)=C/C(=O)O)C(C)(C)CCC1` [Retnoic Acid, retinoic acid]: for the setting “retinoic acid 100 uM”, at 100 µM the inhibition was 53%.

B1: IL-19: interleukin-19 polypeptide, SEQ ID NO:2; mature secreted form from amino acid 23 (His) to 177 (Ala) (protein, listed as Homo sapiens)
chain: MKLQCVSLWLLGTILILCSVDNHGLRRCLISTDMHHIEESFQEIKRAIQAKDTFPNVTILSTLETLQIIKPLDVCCVTKNLLAFYVDRVFKDHQEPNPKILRKISSIANSFLYMQKTLRQCQEQRQCHCRQEATNATRVIHDNYDQLEVHAAAIKSLGELDVFLAWINKNHEVMSSA
Consider B1, for which, under “IL-19 dose response 10, 100, and 1000 ng/ml”, the “maximal inhibition of growth” value was 38%.
